Results: the NIST ThermoML archive (doi:10.1016/j.tca.2012.07.014)
± gives the expanded uncertainty stated by the source.

Conditions: Crystal; visual observation

Normal melting temperature: 360.00 ± 1 °C
SMILES: CO[C@@]12[C@H](COC(N)=O)C3=C(C(=O)C(C)=C(N)C3=O)N1C[C@@H]1N[C@@H]12 [ametycine]
